Results: US12564596B2, “Agents and methods for modulating pathogen activity” (Griffith University, priority 2018, dated 2026)
Like-named read-outs stand apart in the source and are kept apart here.

Columns and labels:
N. gonorrhoeae strains = assay: Well diffusion assay in the absence of human cells; parameters: species or system Neisseria gonorrhoeae; conditions: GC-agar, overnight 37° C.
Description: (§1) FIG. 22 is a graphical representation showing the effect of carbamazepine on N. gonorrhoeae in the absence of human cells. Well diffusion assays were performed in which N. gonorrhoeae strains were spread uniformly across the surface of GC-agar plates at a culture density of 10^7 bacterial per mL. Wells were then punctured within the agar surface to which carbamazepine (Cz; […], as noted), 0.2 μg/mL ceftriaxone (Cfx), 10 μg/mL ciprofloxacin (Cip), or 1% DMSO (vehicle control) were added. […] For agar plates in which a ZOI was not visible, data were recorded as the diameter of the well (6 mm), as indicated. Assays were performed in triplicate on 3 separate occasions. Data are presented as the mean and variance of the average values obtained for each assay; statistical significance was determined using a Student's t-test. […] This is consistent with a CR3-dependent, host-mediated mechanism of killing.
as §1, with “23” for “22”, “methyldopa” for “carbamazepine”, “methyldopa (Md;” for “carbamazepine (Cz;”
FIG. 24 is a graphical representation showing the effect of flufenamic acid on N. gonorrhoeae in the absence of human cells. Well diffusion assays were performed in which N. gonorrhoeae strains were spread uniformly across the surface of GC-agar plates at a culture density of 10^7 bacterial per mL. Wells were then punctured within the agar surface to which flufenamic acid ([…], as noted), 0.2 μg/mL ceftriaxone, 10 μg/mL ciprofloxacin, or 1% DMSO (vehicle control) were added. […] For agar plates in which a ZOI was not visible, data were recorded as the diameter of the well (6 mm), as indicated. Assays were performed in triplicate on 3 separate occasions. Data are presented as the mean and variance of the average values obtained for each assay; statistical significance was determined using a Student's t-test.

[1] = molecular target: T1, N. gonorrhoeae MS11 pilin interaction with human rI-domain (Homo sapiens, UniProt P11215); assay: SPR 1:1 competition assay, MS11 pilin binding to rI-domain; conditions: for inhibition at 0.1 µM: 1:1 competition, 100 nM; for Block MS11 pilin in SPR: direct competition SPR; for Drug RU: drug alone flowed at 100 nM over immobilized rI-domain; for Pilin + Drug RU: drug and pilin flowed at 100 nM, 1:1
T1 construct: was performed with human rI-domain immobilized on a CM5 sensor chip surface; made in house
Description: To determine if drugs with high affinity interactions with the human rI-domain could inhibit the interaction with MS11 pilin or HIV, competition assay between primary T-cell derived WITO HIV and N. gonorrhoeae MS11 pilin and the drugs were performed as described Mubaiwa et al (2017, Sci Rep. 7(1):5693). Competition analysis SPR of N. gonorrhoeae MS11 pilin and human rI-domain interaction was performed with human rI-domain immobilized on a CM5 sensor chip surface (low immobilization—˜3500 RU compared to ˜14000 RU for initial screening and KD calculations). N. gonorrhoeae MS11 purified pilin, drug or drug and pilin were flowed at 100 nM over the I-domain and the response units of the interactions were recorded.

[2] = molecular target: T2, human recombinant I-domain (rI-domain) of CD11b (Homo sapiens, UniProt P11215); assay: Surface plasmon resonance binding to human rI-domain (KD)
T2 construct: made in house

[3] = tested on: N. gonorrhoeae adherence to primary human cervical epithelial (PEX) cells; assay: Fluorometric adherence assay, gonococci to PEX cells; format: cell-based, Neisseria gonorrhoeae; conditions: for gonococcal adherence to PEX cells with increasing concentrations: 1 h post-challenge; for inhibition at 0.01 µM: Neisseria gonorrhoeae, 1 h, read-out: inhibition of adherence to PEX cells; for gonococcal adherence to PEX cells compared with uninfected cells: MS11gfp
Description: Briefly, six N. gonorrhoeae strains were used in the experiments. These included the laboratory strain, MS11; the low-passage isolates, 1291, UT38097, LT38885, PID-26, and SK92-679; all of which were transformed with the green fluorescent protein (GFP) expression plasmid, pCmGFP (GenBank accession number FJ172221) Srikhanta et al (2009, PLoS Pathog. 5(4):e1000400) and, thus, expressed GFP Edwards et al (2000, Infect Immun 68(9):5354-63). […] The ability of carbamazepine to block the adherence of N. gonorrhoeae to human, primary cervical epithelial (PEX) cells was evaluated using a fluorometric adherence assay. Assays were performed essentially as described by Jen et al (2013, supra). In this regard, PEX cells were seeded to a 96-well plate and allowed to grow to confluence. Gonococci were then used to challenge (1 h) PEX cells simultaneously with, or without, various concentrations of carbamazepine ([…], 10 nM, 1 μM, or 100 μM, as noted) or 1% DMSO (vehicle control). Uninfected PEX cells treated with 1% DMSO served as a control for background fluorescence. Fluorescence (485/528 nm) intensity, corresponding to bacterial adherence, was recorded using a Synergy HT Multi-mode Microplate Reader (BioTek Instruments, Winooski, VT USA). The assay was performed in triplicate on 3 separate occasions. A Student's t-test was used to determine the statistical significance of the calculated mean of bacterial adherence.
(§2) The ability of the compounds, or negative controls to block adherence of N. gonorrhoeae strain MS11gfp to PEX cells, CHO-CR3, or CHO-neo cells was evaluated using a fluorometric microtiter plate assay. Assays were performed essentially as described by Jen et al. (2013, Plos Pathog 9(5): e1003377). In this regard, GFP-expressing gonococci were used to challenge (1 h) PEX or CHO cells immediately following compound addition. Fluorescence (485/528 nm) intensity, corresponding to bacterial adherence, was recorded using a Synergy HT Multi-mode Microplate Reader (BioTek Instruments, Winooski, VT USA). Blank wells, devoid of PEX or CHO cells, also were inoculated with bacteria and served as a control for non-specific binding. The assay was performed in triplicate on 3 separate occasions. A Student's t-test was used to determine the statistical significance of the calculated mean of bacterial adherence.

[4] = tested on: N. gonorrhoeae strain MS11gfp adherence to CHO-CR3 cells; assay: Fluorometric adherence assay, gonococci to CHO cells; format: cell-based, Neisseria gonorrhoeae
Description: The ability of carbamazepine to block adherence of N. gonorrhoeae strain MS11gfp to CHO-neo or CHO-CR3 cells was evaluated using a fluorometric adherence assay. Assays were performed essentially as described by Jen et al (2013, PLoS Pathog. 9(5):e1003377). In this regard, CHO-neo or CHO-CR3 cells were seeded to a 96-well plate and allowed to grow to confluence. MS11gfp gonococci were then used to challenge (1 h) CHO cells simultaneously with, or without, various concentrations of carbamazepine (as noted). Fluorescence (485/528 nm) intensity, corresponding to bacterial adherence, was recorded using a Synergy HT Multi-mode Microplate Reader (BioTek Instruments, Winooski, VT USA). The assay was performed in triplicate on 3 separate occasions. A Kruskal-Wallis k-sample analysis of variance was used to determine the statistical significance of the calculated mean of bacterial adherence.
as §2

[5] = tested on: primary T-cell derived WITO HIV interaction with human rI-domain; assay: SPR 1:1 competition assay, WITO HIV binding to rI-domain; conditions: for % inhibition: 1:1 competition, 1 μM; for Block HIV in SPR: direct competition SPR; for Drug RU: drug alone flowed at 1 μM over immobilized WITO HIV; for Pilin + Drug RU: drug and human rI-domain flowed at 1 μM, 1:1
Description: For competition analysis SPR of the HIV interaction with human rI-domain, primary T-cell derived WITO HIV was immobilized on a Cl sensor chip surface. Human rI-domain, drug or drug and human rI-domain were flowed at 1 μM over the immobilized HIV and the response units of the interactions were recorded. Any drug that could not compete with the virus or pilin binding to the rI-domain was also discarded. Remaining drugs were evaluated for known safety in humans and known therapeutic concentrations to determine if the drug would be tested, and at what concentrations, in in vitro cell models. All SPR sensorgrams and results plots were analyzed with Biacore S200 Evaluation Software (GE Healthcare Life Sciences).

[6] = 0.2 μg/mL ceftriaxone, 10 μg/mL ciprofloxacin

T1 sequence (P11215 150-328): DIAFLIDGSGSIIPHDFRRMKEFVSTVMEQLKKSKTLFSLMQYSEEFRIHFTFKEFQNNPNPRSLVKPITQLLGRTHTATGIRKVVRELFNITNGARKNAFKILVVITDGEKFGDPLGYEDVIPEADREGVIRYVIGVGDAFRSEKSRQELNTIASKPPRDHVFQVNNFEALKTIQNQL
T2 sequence (P11215 150-328 limits assumed): as the sequence (P11215 150-328) above

| Compound | effect on N. gonorrhoeae in the absence of human cells (zone of inhibition) (N. gonorrhoeae strains; [6]) | inhibition at 0.1 µM [1] [%] | Block MS11 pilin in SPR [1] | Drug RU [1] [RU] | Pilin + Drug RU [1] [RU] | Kd [2] [nM] | effect on N. gonorrhoeae in the absence of human cells (zone of inhibition) (N. gonorrhoeae strains; 100 μM to 100 μM [sic]) | effect on N. gonorrhoeae in the absence of human cells (zone of inhibition) (N. gonorrhoeae strains; concentrations of ≤1 μM) | gonococcal adherence to PEX cells with increasing concentrations [3] | inhibition at 0.01 µM [3] [%] | blocking of the adherence of gonococci to CR3 ([4]; 100 μM, CHO-CR3 cells, 1 h) | gonococcal adherence to CHO-CR3, but not CHO-neo, cells with increasing concentrations ([4]; 1 h post-challenge) | % inhibition [5] [%] | Block HIV in SPR [5] | Drug RU [5] [RU] | Pilin + Drug RU [5] [RU] | Kd ([2]; SPR, single cycle kinetics, 25° C., PBS, read-out: KD) [nM] | gonococcal adherence to PEX cells compared with uninfected cells ([3]; 1 μM) | gonococcal adherence to PEX cells compared with uninfected cells ([3]; 100 μM) | gonococcal adherence to CHO-CR3 cells compared with CHO-neo cells ([4]; 100 μM, 1 h post-challenge) |
| --- | --- | --- | --- | --- | --- | --- | --- | --- | --- | --- | --- | --- | --- | --- | --- | --- | --- | --- | --- | --- |
| CO/N=C(\C(=O)N[C@@H]1C(=O)N2C(C(=O)O)=C(CSc3nc(=O)c(=O)[nH]n3C)CS[C@H]12)c1csc(N)n1 [ceftriaxone] | direct effect in killing gonococci |  |  |  |  |  |  |  |  |  |  |  |  |  |  |  |  |  |  |  |
| O=C(O)c1cn(C2CC2)c2cc(N3CCNCC3)c(F)cc2c1=O [ciprofloxacin] | direct effect in killing gonococci |  |  |  |  |  |  |  |  |  |  |  |  |  |  |  |  |  |  |  |
| O=C(O)c1ccccc1Nc1cccc(C(F)(F)F)c1 [flufenamic acid, 2{[3-(trifluoromethyl)phenyl]amino}benzoic acid] |  | 79.8 | Yes | 4.627 | 10.872 | 6.66 | no effect | no effect | dose-dependent decrease | ~70 | Greater than 86% | dose-dependent decrease | 85.47 | Yes | 0.473 | 8.857 |  |  |  |  |
| C[C@](N)(Cc1ccc(O)c(O)c1)C(=O)O [methyldopa, (S)-2-amino-3-(3,4-dihydroxyphenyl)-2-methyl-propanoic acid] |  | 88.9 | Yes | 4.578 | 8.003 |  | no effect |  | dose-dependent decrease | ~85 |  | dose-dependent decrease | 93.94 | Yes | 0.296 | 3.692 | 1.01 | not significantly (p≥0.234) different than those obtained for vehicle (DMSO)-treated, uninfected PEX cells | not significantly (p≥0.234) different than that recorded for uninfected cells | not significantly different than that recorded for CHO-neo cells |
